Experiments:
[1] = tested on: knee joints of aged mice; assay: Systemic i.p. treatment of aged mice: knee joint Safranin O histology and OARSI scoring; type: in vivo, mice C57BL/6; settings: 5 mg/kg i.p. daily for 1 month
Protocol: Mice handling. All experiments and protocols were performed in accordance with the institutional guidelines of Stanford University and Administrative Panel on Laboratory Animal Care (APLAC). Aged (24-28 mo.) mice C57BL/6 were obtained from the US National Institute on Aging (NIA) aged colony.
(§1) Histology on mouse joints and human cartilage explants. Mouse joints were fixed in 4% paraformaldehyde overnight, dehydrated in ethanol and embedded in paraffin. Sagittal Sections (5 μm) of the mouse joints were cut by the Histoserv, Inc (Germantown, MD). Cartilage histology was performed by Safranin O (Saf O) staining as previously reported (Smeriglio et al., 2020, Sci Transi. Med. 12:eaax2332). Joints were assessed through blinded grading with the OARSI scoring system. Briefly, sections of mouse joints were stained with Safranin O, and cartilage degeneration was evaluated by assigning numbers 0 to 4 for increasing depth of cartilage degeneration (OARSI scoring system). For the summit scores, five regions were summed.
SW was previously extensively characterized as a specific inhibitor of 15-PGDH in vitro (ki of 0.1 nM).

[2] = tested on: OA knee joints of adult mice; assay: Tibia loading (ACL rupture) post-traumatic OA in adult mice, intra-articular injections: Safranin O histology and OARSI scoring; type: in vivo, mice C57BL/6; settings: tibial compression OA, intra-articular twice a week for 4 weeks
Description: (§2) Tibia loading to induce osteoarthritis in young mice. Briefly, mice were anesthetized using 2.5% isoflurane inhalation under 4 L/min of oxygen. The right tibia was positioned vertically, with the ankle upward and the knee downward in deep flexion between loading cups. Using a material testing machine (Instron ElectroPulse E1000), axial compression was applied through the knee via the upper cup, while the lower cup was fixed and linked to the load cell. The ACL tear was confirmed by the release of compressive force during compression. Mice were allowed to progress for 6 weeks after loading (n=8 for each group). Contralateral left limb served as a non-loaded control. Mice blood serum was collected via retro-orbital bleeding to do multiplex autoantibody assay. Mice were sacrificed by cervical dislocation and knee joint were collected for assessment.
as §1
To test whether 15-PGDH inhibition would be protective in younger, adult mice upon induction of OA, OA was induced in young, adult mice (3 months old) by application of tibial compression on the mouse knee leading to anterior crucial ligament (ACL) rupture. This injury model recapitulates ACL injury frequently observed in human patients. After 1 week of injury, local intra-articular injections of vehicle or SW were given twice a week for 4 weeks. […]

[3] = tested on: chondrocytes in articular cartilage; assay: Transmission electron microscopy of chondrocytes in articular cartilage, mitochondria per cell; type: in vivo, mice
Protocol: Transmission electron microscopy (TEM). Knee joints were fixed in Karnovsky's fixative composed of 2% Glutaraldehyde (EMS Cat #16000) and 4% paraformaldehyde (EMS Cat #15700) in 0.1M Sodium Cacodylate (EMS Cat #12300) pH 7.4 for 4 hours at 4° C. Joints were washed with cold PBS 3× and then decalcified in 14% EDTA solution in PBS for 3 days at 4° C. Samples were washed with PBS and placed in cold/aqueous 1% osmium tetroxide (EMS Cat #19100) on a rotator and allowed to warm to room temperature (RT) for 1 hr. Samples were washed 3× with ultrafiltered water followed by staining in 1% uranyl acetate at RT for 2 hours. Samples were then dehydrated in a series of ethanol washes for 30 minutes each at RT beginning at 50%, 70% and finally moved to 4° C. overnight. They were placed in cold 95% EtOH and allowed to warm to RT, changed to 100% 2×, then Propylene Oxide (PO) for 15 min. Samples were infiltrated with EMbed-812 resin (EMS Cat #14120) mixed 1:2, 1:1, and 2:1 with PO for 2 hrs each with leaving samples in 2:1 resin to PO overnight rotating at RT in the hood. The samples were then placed into EMbed-812 for 2 to 4 hours then placed into molds w/labels and fresh resin, orientated and placed into 65° C. oven overnight. […]

[4] = tested on: PGE2 levels; settings: in vivo, bone marrow, colon, lung and liver, cited from earlier work
[5] = biological target: 15-PGDH (Mus musculus, UniProt Q8VCC1); settings: aged muscles, one month of daily intraperitoneal treatment, cited from earlier work
[6] = tested on: inflammatory cytokine levels; assay: Luminex cytokine panel on serum of OA mice given intra-articular injections; type: in vivo; settings: vs vehicle
Description: as §2
(§3) Luminex Assay. This assay was performed at the Human Immune Monitoring Center at Stanford University. Human 76-plex or mouse 48-plex kits (eBioscience/Affymetrix) were used according to the manufacturer's recommendations. Briefly, antibody beads and samples were added to a 96-well plate and incubated at room temperature for 2 hours, followed by overnight incubation at 4° C. with shaking at 500 to 600 rpm. Plates were then washed in a w ash buffer, and biotinylated detection antibody was added for 2 hours at room temperature with shaking. Plate was washed, and streptavidin-phycoerythrin was added After 40 min incubation and washes, reading buffer was added to the wells Plates were read using a Luminex 200 instrument with a lower bound of 50 beads per sample per cytokine. Custom assay control beads were added to all wells. The raw MFI read-outs of all samples were used and analyzed by GraphPad prism.
To test whether 15-PGDH inhibition would be protective in younger, adult mice upon induction of OA, OA was induced in young, adult mice (3 months old) by application of tibial compression on the mouse knee leading to anterior crucial ligament (ACL) rupture. This injury model recapitulates ACL injury frequently observed in human patients. After 1 week of injury, local intra-articular injections of vehicle or SW were given twice a week for 4 weeks. […] Upon blinded scoring of mice knee joints based on the OARSI scoring system, it was observed that the maximal damage score. […] To assess the inflammation in these mice, serum was utilized from vehicle or SW injected mice to test for a 39-plex Luminex cytokine panel. […] These observations corroborated that local 15-PGDH inhibition by SW treatment not only enhances cartilage regeneration but also decreases the inflammation in osteoarthritic mice.

[7] = tested on: human OA cartilage explants; assay: Human OA cartilage explants: Ki67 immunostaining; type: cell-based
Description: (§4) Human cartilage tissue collection and treatment. Human cartilage samples were harvested from the surgical knee tissue discards of patients (n>5, age ranging from 55-75 years) undergoing total knee arthroplasty according to approved human subjects institutional review board protocols at Stanford University. Informed, written consent was given by the patients prior to the study. Cylindrical explants (4 mm diameter, 2-4 mm thickness) were extracted from the cartilage samples using standard biopsy punches (Integra, NJ. USA). Cartilage explants were cultured in DMEM-F12 medium supplemented with 10% fetal bovine serum (FBS), 25 μg mL^−1 ascorbic acid, 1× glutamine, and 1× antibiotic-antimycotic solution prior to experiments. To assess the effect of 15-PGDH inhibition, explants were treated with Vehicle (DMSO) or SW (10 uM) for 1 week prior to the assessment. Fresh media was added to the explants every other day.
Cell cycle marker-Ki67 immunostaining. Human OA explants treated with vehicle and SW were fixed and embedded in OCT as described in previous section, 10 μm sections on poly-1-lysine-coated glass slides were obtained using a cryostat. Immunostaining was performed using a standard protocol. […]
(§5) Next, the effects of 15-PGDH inhibition in human OA cartilage were tested. […] Sulphated glycosaminoglycans (sGAG) were also independently quantified through measurements with the DMMB dye. […]

[8] = tested on: cartilage from aged mice; assay: RNA-seq, differential gene expression and Ingenuity Pathway Analysis of cartilage from aged mice treated systemically; type: in vivo
Protocol: Mice handling. […] Aged (24-28 mo.) mice C57BL/6 were obtained from the US National Institute on Aging (NIA) aged colony.
RNA extraction and library preparation from mouse joints for RNA seq. Knee joint microdissection was performed under a stereoscope to collect cartilage tissue by carefully eliminating any tendons, synovial membrane and meniscal residue and then shaving the cartilage tissue from the underlying bone (Smeriglio et al., 2020, Sci Transl. Med. 12:eaax2332). The isolated cartilage tissue was kept in RNA later (Ambion) and stored at −80° C. for later use. Cartilage tissue was homogenized in Trizol using a bullet blender (Next Advance), followed by RNA extraction and purification using RNeasy micro-kit (Qiagen). cDNA libraries were constructed from 10 ng total RNA using SMARTer stranded Total RNA-Seq kit v3 (Takara Bio). Libraries were sequenced to 25-30×10^6 150-bp paired end reads per sample on an Illumina NovaSeq platform (Novogene, CA).
Differential Gene Expression Analysis. For the RNA-seq analysis, pseudo aligner Salmon was used to quantify the expression of transcripts. Sequences were also aligned against the Mus musculus genome (mm9) using the STAR aligner. A counts matrix containing the number of counts for each gene and each sample was obtained. This matrix was analyzed by DESeq2 to calculate statistical analysis of significance of genes between samples. […] Functional analysis of differentially expressed genes was analyzed using Ingenuity Pathway Analysis (IPA) and DAVID bioinformatic tools.
To identify the downstream molecular pathways through which 15-PGDH may exert its effect on aged cartilage, transcriptomic analysis of vehicle and SW treated cartilage from aged mice (24 mo) was performed and compared to cartilage from young adult mice (3 mo) through RNA-seq.

[9] = tested on: human OA cartilage explants; assay: Human OA cartilage explants: DMMB assay for sGAG; type: cell-based; settings: SW 10 uM, 7 days, vs vehicle
Description: Human cartilage tissue collection and treatment. Human cartilage samples were harvested from the surgical knee tissue discards of patients (n>5, age ranging from 55-75 years) undergoing total knee arthroplasty according to approved human subjects institutional review board protocols at Stanford University. Informed, written consent was given by the patients prior to the study. Cylindrical explants (4 mm diameter, 2-4 mm thickness) were extracted from the cartilage samples using standard biopsy punches (Integra, NJ. USA). […]
1,9-dimethylmethylene Blue (DMMB) and Pico-green Assays. […] Briefly, 20 μL sample was mixed with 200 μL DMMB solution (16 mg DMMB dye dissolved in an aqueous solution of 0.03 m NaCl, 40 mm glycine, 9.5% 0.1 m acetic acid, pH 3.0) and absorbance was measured at 525 nm immediately. […] The DNA content in OA explants was measured by Pico-green assay (Quant-iT Pico-green dsDNA Assay Kit, Invitrogen) as per manufacturer's instructions using the same papain digest supernatant of the OA explants. Quantified sulfated GAG content in OA cartilage explants was normalized to the weight of corresponding explants and the DNA content.
as §5

[10] = tested on: human OA cartilage explants; assay: Human OA cartilage explants: Luminex cytokine panel on culture medium; type: cell-based; settings: culture medium (secretome) of SW treated explants vs vehicle
Description: as §4, §3, §5

[11] = tested on: human OA cartilage explants; assay: Human OA cartilage explants: Safranin O staining; type: cell-based; settings: SW 10 uM, 1 week, all zones, especially middle and deep zone
Description: as §4
After 1 week of treatment with SW, explants were fixed in 4% paraformaldehyde, washed with PBS, and cryopreserved in 30% sucrose solution overnight. […] Explants from at least five different patient donors and multiple (>5) sections were used for quantitative analysis.
as §5

[12] = SW treated aged cartilage, almost to the levels of young cartilage
[13] = aged cartilage, SW vs vehicle, among 301 DEGs

15-PGDH, sequence (Q8VCC1 whole entry): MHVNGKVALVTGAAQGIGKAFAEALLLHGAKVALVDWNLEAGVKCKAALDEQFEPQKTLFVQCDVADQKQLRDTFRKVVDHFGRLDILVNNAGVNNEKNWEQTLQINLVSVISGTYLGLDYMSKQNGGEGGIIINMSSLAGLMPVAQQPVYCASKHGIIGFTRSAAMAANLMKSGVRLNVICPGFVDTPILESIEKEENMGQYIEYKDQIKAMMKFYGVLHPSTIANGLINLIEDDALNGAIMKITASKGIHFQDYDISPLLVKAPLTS

CCCC[S+]([O-])c1sc2nc(-c3cccs3)cc(-c3ccccc3)c2c1N (stereo not shown) [SW033291, 2-(butylsulfinyl)-4-phenyl-6-(thiophen-2-yl)thieno[2,3-b]pyridin-3-amine]
cartilage structure (safranin O staining of knee joints) [1]: improved cartilage structure with increased thickness, GAG staining and smoother cartilage surface | OARSI Maximum score ([1]; vs control): significantly decreased | OARSI Summit score ([1]; vs control): significantly decreased | GAG staining and cartilage degradation (Safranin O) ([2]; 3-month-old mice, 6 weeks): higher GAG staining and reduced cartilage degradation | OARSI Maximum score ([2]; vs vehicle): significantly decreased | OARSI Summit score ([2]; vs vehicle): significantly decreased | number of mitochondria per cell (TEM images) ([3]; aged cartilage, SW treated vs vehicle treated): significant increase | mitochondria per cell, quantification with Image J ([3]; aged chondrocytes, SW treatment, compared with young cartilage): restoring the mitochondria number in aged chondrocytes to the level of young cartilage | increase of PGE2 levels [4]: 2 fold | increase of PGD2 levels ([4]; compared with PGE2 increase): to a lesser extent | levels of PGE2 and PGD2 ([5]; LC-MS/MS): concomitant increase | 15-PGDH specific activity [5]: significantly reduced | CCL4 level [6]: significant downregulation | CCL7 level [6]: significant downregulation | CXCL10 level [6]: significant downregulation | IL2 level [6]: significant downregulation | IL27 level [6]: significant downregulation | VEGF level [6]: significant downregulation | inflammatory cytokine levels [6]: overall reduction | Ki67 intensity distribution ([7]; SW vs vehicle treated cells): increased Ki67 expression | Ki67 positive cells ([7]; SW vs vehicle treated explants): increase in Ki67 positive cells | genes involved in mitochondrial function and metabolism (IPA) ([8]; SW treated aged cartilage): significant upregulation | COX5a expression [8, 12]: significantly upregulated | Ndufa9 expression [8, 12]: significantly upregulated | number of downregulated differentially expressed genes [8, 13]: 154 | number of upregulated differentially expressed genes [8, 13]: 147 | GAG content (sGAG, DMMB dye) [9]: significantly increased | CCL5 level [10]: significant reduction | GMCSF level [10]: significant reduction | IL6 level [10]: significant reduction | GAG staining (Safranin O) [11]: increase in GAG staining
